The record followed here is patent US7943795B2, “Vitamin D receptor modulators” (Eli Lilly and Company, priority 2004, dated 2011).

For assay [1], the system named is KERtr cells (Human skin keratinocyte). The assay is described as follows: Keratinocyte proliferation assay. Type of assay: cell-based. The conditions noted are these: 72 hr, BrdU incorporation, read-out: Keranocyte Proliferation IC50. As for the experimental part: 6. The keratinocyte proliferation assay is described in the “Assay” section of the Description, infra.
The Keratinocyte Proliferation Assay
This Assay is indicative for the treatment of psoriasis. An acceptable test result is IC50 value of less than or equal to 300 nM. Preferred assay results are IC50 values of less than 100 nM.
KERtr cells (Human skin keratinocyte are transformed with a retrovirus vector, obtained from ATCC, then are plated in 96-well flat-bottomed plates (3000 cells/well) in 100 μl keratinocyte serum free medium supplemented with bovine pituitary extract in the absence of EGF (Life Technologies, Rockville, Md.) and are incubated at 37° C. for two days. The cells are treated with various concentrations of VDR ligands (ten-fold serial dilution from 10,000 nM to 0.1 nM in triplicate), dissolved in 100 μl keratinocyte serum free medium supplemented with bovine pituitary extract in the absence of EGF and are incubated at 37° C. for 72 hr. BrdU (5-bromo-2′-deoxyuridine) incorporation is analyzed as a measure of DNA replication (Cell proliferation ELISA kit, Roche Diagnostics, Indianapolis, Ind.) and absorbance is measured at […]. Potency values (IC50) values were determined as the concentration (nM) of compound that elicited a half-maximal response.
In general terms: Incorporation of labelled thymidine or its analogues reports DNA synthesis.

Assay [2] relates to IL-10 production in PBMCs. The assay is described as follows: IL-10 induction assay. Type of assay: cell-based. The conditions noted are these: PBMC; TPA/PHA stimulated human PBMCs, IL-10 in supernatant by immunoassay. From the text:
7. The IL-10 induction assay is described in the “Assay” section of the Description, infra.
The IL-10 Induction Assay
This is an in vitro efficacy assay for psoriasis, abscess and adhesion. Psoriasis involves both keratinocytes and immune cells. IL-10 is a unique cytokine because it is anti-inflammatory and immunosuppressive. This assay tells us whether a VDRM is able to function as an agonist in PBMCs (primary blood mononuclear cells) or not. A lower EC50 value is desirable in this assay since a compound with a lower EC50 value will be a better agonist in PBMCs. An acceptable test result is an EC50 value of less than 200 nM. Preferred assay results are EC50 values of less than 100 nM.
Isolation of Peripheral Blood Mononuclear Cells (PBMCs):
Collect 50 ml of human blood and dilute with media, RPMI-1640. Add diluted blood to sterile tubes with ficol. Centrifuge the tubes. Discard the top layer and collect the cells from middle layer. Divide all cells into four tubes and add media. Centrifuge. Aspirate off media and resuspend the cells. Collect all cells. Centrifuge at 1200 rpm for 10 m. Resuspend the cells in RPMI-1640 with 2% FBS and then count cells.
Stimulation of PBMC: Prepare TPA in DMSO. Dissolve PHA in water. Plate TPA/PHA treated PBMCs in well plates. Incubate the cells.
Treatment: Prepare all compound dilutions in plain RPMI-1640 media. Add diluted compound and incubate. Sample Collection and assay: Remove all the cells by centrifugation and assay the supernatant for IL-10 by immunoassay using anti-human IL-10 antibody coated beads, as described by the manufacturer (Linco Research Inc., St. Charles, Mo.).

For `CCC(CC)(c1ccc(OCC(O)C(C)(C)C)c(C)c1)c1ccc2cc(C(=O)O)ccc2c1` (racemic) [Ex. 2, 6-{1-Ethyl-1-[4-(2-hydroxy-3,3-dimethyl-butoxy)-3-methyl-phenyl]-propyl}-naphthalene-2-carboxylic acid], the IC50 in assay [1] is 47 nM; in assay [2] it was 49 nM.
